In ChEMBL document CHEMBL1153717:

target: T1, Low molecular weight protein-tyrosine phosphatase A (Mycobacterium tuberculosis, UniProt P9WIA1); experiment: Inhibition of Mycobacterium tuberculosis PtpA; conditions: not given
T1 sequence (P9WIA1 whole entry): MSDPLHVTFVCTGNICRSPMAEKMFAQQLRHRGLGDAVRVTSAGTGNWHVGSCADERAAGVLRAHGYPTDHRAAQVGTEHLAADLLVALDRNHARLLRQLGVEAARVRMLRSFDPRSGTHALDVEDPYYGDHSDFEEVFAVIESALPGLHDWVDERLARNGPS

Row | SMILES | Ki
1 | O=C(Nc1nc2ccccc2[nH]1)c1ccc(C(F)(F)P(=O)(O)O)cc1 | ND(Insoluble)

same assay, conditions: read-out: Ki

Row | SMILES | Ki
2 | O=C(Nc1cccc(Cl)c1)c1ccc(C(F)(F)P(=O)(O)O)cc1 | 34.9 µM
3 | O=C(Nc1ccc(Cl)c(C(F)(F)F)c1)c1ccc(C(F)(F)P(=O)(O)O)cc1 | 6 µM
4 | O=C(Cc1ccc(C(F)(F)P(=O)(O)O)cc1)Nc1ccccc1 | > 100 µM
5 | O=C(Nc1ccc(Cl)cc1)c1ccc(C(F)(F)P(=O)(O)O)cc1 | 16.8 µM
6 | O=C(Nc1ccccc1)c1ccc(C(F)(F)P(=O)(O)O)cc1 | 24 µM
7 | O=C(NC1CCCC1)c1ccc(C(F)(F)P(=O)(O)O)cc1 | 72.4 µM
8 | CC(C)NC(=O)c1ccc(C(F)(F)P(=O)(O)O)cc1 | > 100 µM
9 | O=P(O)(O)C(F)(F)c1ccc2nn(Cc3ccccc3)cc2c1 | 84.4 µM
10 | O=C(Nc1cc(C(F)(F)F)c(Br)c(C(F)(F)F)c1)c1ccc(C(F)(F)P(=O)(O)O)cc1 | 1.4 µM
11 | O=C(Nc1ccc(C(F)(F)P(=O)(O)O)cc1)c1ccccc1 | 65.5 µM
12 | O=C(Nc1ccc(C(F)(F)F)cc1)c1ccc(C(F)(F)P(=O)(O)O)cc1 | 18.5 µM
13 | O=P(O)(O)C(F)(F)c1ccc(CNc2ccccc2)cc1 | > 100 µM
14 | O=P(O)(O)C(F)(F)c1ccc(Br)cc1 | 92.3 µM
15 | CCN1CCC(NC(=O)c2ccc(C(F)(F)P(=O)(O)O)cc2)CC1 | > 100 µM
16 | O=C(O)c1ccc(C(F)(F)P(=O)(O)O)cc1 | > 100 µM
17 | O=[N+]([O-])c1ccc(C(F)(F)P(=O)(O)O)cc1 | 75.4 µM
18 | O=C(Nc1ccc(F)cc1)c1ccc(C(F)(F)P(=O)(O)O)cc1 | 22.7 µM
19 | O=C(Nc1ccc(Br)c(C(F)(F)F)c1)c1ccc(C(F)(F)P(=O)(O)O)cc1 | 4.9 µM
20 | Cn1cc(-c2ccc(C(F)(F)P(=O)(O)O)cc2)cn1 | > 100 µM
21 | O=C(NCc1ccccc1)c1ccc(C(F)(F)P(=O)(O)O)cc1 | 43.1 µM
22 | O=C(Nc1ccccc1F)c1ccc(C(F)(F)P(=O)(O)O)cc1 | > 100 µM

Row | SMILES | Ki
23 | O=C(Nc1ccc(C(F)(F)P(=O)(O)O)cc1)Nc1cc(C(F)(F)F)cc(C(F)(F)F)c1 | 3.1 µM
24 | O=C(Nc1cccc(C(F)(F)F)c1)c1ccc(C(F)(F)P(=O)(O)O)cc1 | 10.7 µM
25 | O=P(O)(O)C(F)(F)c1ccc2c(cnn2Cc2ccccc2)c1 | > 100 µM
26 | O=C(Nc1nccs1)c1ccc(C(F)(F)P(=O)(O)O)cc1 | 33 µM
27 | O=C(NCC(F)(F)F)c1ccc(C(F)(F)P(=O)(O)O)cc1 | 49.7 µM
28 | O=C(Nc1ccc(Br)cc1)c1ccc(C(F)(F)P(=O)(O)O)cc1 | 10.3 µM
29 | O=C(Nc1cccc(F)c1)c1ccc(C(F)(F)P(=O)(O)O)cc1 | 41.8 µM
30 | O=P(O)(O)C(F)(F)c1ccc(-c2ccccc2)cc1 | > 100 µM
31 | O=P(O)(O)C(F)(F)c1ccc(COc2ccccc2)cc1 | > 100 µM
32 | CN(C(=O)c1ccc(C(F)(F)P(=O)(O)O)cc1)c1ccccc1 | > 100 µM
33 | O=P(O)(O)C(F)(F)c1ccc(S(=O)(=O)Nc2ccccc2)cc1 | > 100 µM
34 | O=C(Nc1ccccc1Br)c1ccc(C(F)(F)P(=O)(O)O)cc1 | 44.6 µM
35 | O=C(Nc1ccccc1Cl)c1ccc(C(F)(F)P(=O)(O)O)cc1 | 68 µM
36 | O=C(Nc1cc(C(F)(F)F)cc(C(F)(F)F)c1)c1ccc(C(F)(F)P(=O)(O)O)cc1 | 3.3 µM
37 | O=C(Nc1ccccc1C(F)(F)F)c1ccc(C(F)(F)P(=O)(O)O)cc1 | 54.8 µM
38 | O=C(NCCc1ccccc1)c1ccc(C(F)(F)P(=O)(O)O)cc1 | 61.6 µM
39 | CNC(=O)c1ccc(C(F)(F)P(=O)(O)O)cc1 | > 100 µM
40 | O=C(NCC1CCCC1)c1ccc(C(F)(F)P(=O)(O)O)cc1 | > 100 µM
41 | O=C(Nc1ccccc1)c1cccc(C(F)(F)P(=O)(O)O)c1 | > 100 µM
42 | O=C(Nc1cccc(Br)c1)c1ccc(C(F)(F)P(=O)(O)O)cc1 | 18.2 µM
43 | O=C(Nc1ccc(F)c(C(F)(F)F)c1)c1ccc(C(F)(F)P(=O)(O)O)cc1 | 11.4 µM

target: T2, Tyrosine-protein phosphatase non-receptor type 1 (Homo sapiens, UniProt P18031); experiment: Inhibition of human PTP1B; conditions: not given
T2 sequence (P18031 whole entry): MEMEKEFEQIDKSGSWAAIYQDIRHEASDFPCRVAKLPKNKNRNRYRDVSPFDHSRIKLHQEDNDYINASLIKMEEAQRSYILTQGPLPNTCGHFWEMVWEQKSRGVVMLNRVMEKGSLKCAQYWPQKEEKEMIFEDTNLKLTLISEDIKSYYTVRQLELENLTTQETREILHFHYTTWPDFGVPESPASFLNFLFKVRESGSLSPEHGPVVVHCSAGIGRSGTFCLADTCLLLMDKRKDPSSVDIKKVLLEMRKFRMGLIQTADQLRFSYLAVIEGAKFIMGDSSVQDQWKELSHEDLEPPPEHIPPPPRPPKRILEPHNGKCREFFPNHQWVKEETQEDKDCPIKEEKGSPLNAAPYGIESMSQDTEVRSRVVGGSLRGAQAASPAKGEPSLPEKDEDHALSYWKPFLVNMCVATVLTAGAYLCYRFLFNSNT

Row | SMILES | Ki
44 | O=C(Nc1cc(C(F)(F)F)c(Br)c(C(F)(F)F)c1)c1ccc(C(F)(F)P(=O)(O)O)cc1 | > 100 µM

target: T3, Tyrosine-protein phosphatase non-receptor type 2 (Homo sapiens, UniProt P17706); experiment: Inhibition of human TCPTP; conditions: not given
T3 sequence (P17706 whole entry): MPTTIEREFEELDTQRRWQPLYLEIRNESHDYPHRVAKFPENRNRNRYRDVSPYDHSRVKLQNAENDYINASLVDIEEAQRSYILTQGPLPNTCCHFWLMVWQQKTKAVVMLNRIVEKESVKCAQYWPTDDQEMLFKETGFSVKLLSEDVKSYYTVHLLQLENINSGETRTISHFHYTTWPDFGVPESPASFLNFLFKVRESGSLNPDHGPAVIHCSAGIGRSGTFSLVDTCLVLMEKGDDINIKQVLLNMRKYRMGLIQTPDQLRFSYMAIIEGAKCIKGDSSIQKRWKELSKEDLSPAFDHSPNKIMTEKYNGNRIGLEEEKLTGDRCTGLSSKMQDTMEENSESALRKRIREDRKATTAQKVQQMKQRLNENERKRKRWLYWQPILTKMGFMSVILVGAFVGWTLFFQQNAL

Row | SMILES | Ki
45 | O=C(Nc1cc(C(F)(F)F)c(Br)c(C(F)(F)F)c1)c1ccc(C(F)(F)P(=O)(O)O)cc1 | > 100 µM

target: Dual specificity protein phosphatase 3 (Homo sapiens, UniProt P51452); experiment: Inhibition of human VHR; conditions: not given
Sequence (P51452 whole entry): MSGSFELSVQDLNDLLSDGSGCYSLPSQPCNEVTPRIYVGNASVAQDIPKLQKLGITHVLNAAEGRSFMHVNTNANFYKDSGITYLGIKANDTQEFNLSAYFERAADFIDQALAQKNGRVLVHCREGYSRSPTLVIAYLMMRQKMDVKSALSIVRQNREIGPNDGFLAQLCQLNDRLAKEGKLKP

Row | SMILES | Ki
46 | O=C(Nc1cc(C(F)(F)F)c(Br)c(C(F)(F)F)c1)c1ccc(C(F)(F)P(=O)(O)O)cc1 | > 100 µM

target: T4, Receptor-type tyrosine-protein phosphatase C (Homo sapiens, UniProt P08575); experiment: Inhibition of human CD45; conditions: not given
T4 sequence (P08575 whole entry): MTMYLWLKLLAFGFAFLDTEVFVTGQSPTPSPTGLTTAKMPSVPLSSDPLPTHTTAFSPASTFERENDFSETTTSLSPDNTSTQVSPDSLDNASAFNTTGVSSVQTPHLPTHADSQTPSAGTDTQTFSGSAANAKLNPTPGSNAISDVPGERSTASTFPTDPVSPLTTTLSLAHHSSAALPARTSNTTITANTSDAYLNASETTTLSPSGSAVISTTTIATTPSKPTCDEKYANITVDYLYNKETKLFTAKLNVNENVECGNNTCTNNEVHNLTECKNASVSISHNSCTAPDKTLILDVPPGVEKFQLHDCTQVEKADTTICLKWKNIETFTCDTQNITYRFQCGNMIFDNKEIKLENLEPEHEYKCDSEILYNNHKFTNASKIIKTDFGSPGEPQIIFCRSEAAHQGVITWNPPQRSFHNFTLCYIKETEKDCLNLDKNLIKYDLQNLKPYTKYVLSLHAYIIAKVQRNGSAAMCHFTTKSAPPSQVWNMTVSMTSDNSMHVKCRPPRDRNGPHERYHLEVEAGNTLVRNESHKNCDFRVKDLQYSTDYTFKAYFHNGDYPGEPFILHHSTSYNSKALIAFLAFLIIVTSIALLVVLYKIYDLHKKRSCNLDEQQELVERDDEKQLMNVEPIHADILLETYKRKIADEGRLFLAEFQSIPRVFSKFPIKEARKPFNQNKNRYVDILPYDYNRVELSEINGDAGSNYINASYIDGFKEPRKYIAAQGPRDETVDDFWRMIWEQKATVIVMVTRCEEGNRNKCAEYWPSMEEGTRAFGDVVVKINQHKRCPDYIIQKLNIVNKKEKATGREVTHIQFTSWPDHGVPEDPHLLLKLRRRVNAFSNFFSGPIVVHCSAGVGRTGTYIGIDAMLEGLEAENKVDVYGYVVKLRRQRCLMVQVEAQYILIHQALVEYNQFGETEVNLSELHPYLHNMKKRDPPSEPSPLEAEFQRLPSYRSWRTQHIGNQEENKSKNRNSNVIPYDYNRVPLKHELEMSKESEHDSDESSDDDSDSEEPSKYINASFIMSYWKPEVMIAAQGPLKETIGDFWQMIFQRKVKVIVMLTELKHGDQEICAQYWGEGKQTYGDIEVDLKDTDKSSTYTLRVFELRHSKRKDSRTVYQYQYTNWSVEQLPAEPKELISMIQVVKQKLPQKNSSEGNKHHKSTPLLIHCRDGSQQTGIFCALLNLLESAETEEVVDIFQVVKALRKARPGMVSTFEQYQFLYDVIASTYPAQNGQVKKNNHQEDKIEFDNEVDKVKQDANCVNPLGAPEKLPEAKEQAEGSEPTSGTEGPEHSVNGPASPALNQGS

Row | SMILES | Ki
47 | O=C(Nc1cc(C(F)(F)F)c(Br)c(C(F)(F)F)c1)c1ccc(C(F)(F)P(=O)(O)O)cc1 | > 100 µM

target: Receptor-type tyrosine-protein phosphatase F (Homo sapiens, UniProt P10586); experiment: Inhibition of human LAR; conditions: not given
Sequence (P10586 whole entry): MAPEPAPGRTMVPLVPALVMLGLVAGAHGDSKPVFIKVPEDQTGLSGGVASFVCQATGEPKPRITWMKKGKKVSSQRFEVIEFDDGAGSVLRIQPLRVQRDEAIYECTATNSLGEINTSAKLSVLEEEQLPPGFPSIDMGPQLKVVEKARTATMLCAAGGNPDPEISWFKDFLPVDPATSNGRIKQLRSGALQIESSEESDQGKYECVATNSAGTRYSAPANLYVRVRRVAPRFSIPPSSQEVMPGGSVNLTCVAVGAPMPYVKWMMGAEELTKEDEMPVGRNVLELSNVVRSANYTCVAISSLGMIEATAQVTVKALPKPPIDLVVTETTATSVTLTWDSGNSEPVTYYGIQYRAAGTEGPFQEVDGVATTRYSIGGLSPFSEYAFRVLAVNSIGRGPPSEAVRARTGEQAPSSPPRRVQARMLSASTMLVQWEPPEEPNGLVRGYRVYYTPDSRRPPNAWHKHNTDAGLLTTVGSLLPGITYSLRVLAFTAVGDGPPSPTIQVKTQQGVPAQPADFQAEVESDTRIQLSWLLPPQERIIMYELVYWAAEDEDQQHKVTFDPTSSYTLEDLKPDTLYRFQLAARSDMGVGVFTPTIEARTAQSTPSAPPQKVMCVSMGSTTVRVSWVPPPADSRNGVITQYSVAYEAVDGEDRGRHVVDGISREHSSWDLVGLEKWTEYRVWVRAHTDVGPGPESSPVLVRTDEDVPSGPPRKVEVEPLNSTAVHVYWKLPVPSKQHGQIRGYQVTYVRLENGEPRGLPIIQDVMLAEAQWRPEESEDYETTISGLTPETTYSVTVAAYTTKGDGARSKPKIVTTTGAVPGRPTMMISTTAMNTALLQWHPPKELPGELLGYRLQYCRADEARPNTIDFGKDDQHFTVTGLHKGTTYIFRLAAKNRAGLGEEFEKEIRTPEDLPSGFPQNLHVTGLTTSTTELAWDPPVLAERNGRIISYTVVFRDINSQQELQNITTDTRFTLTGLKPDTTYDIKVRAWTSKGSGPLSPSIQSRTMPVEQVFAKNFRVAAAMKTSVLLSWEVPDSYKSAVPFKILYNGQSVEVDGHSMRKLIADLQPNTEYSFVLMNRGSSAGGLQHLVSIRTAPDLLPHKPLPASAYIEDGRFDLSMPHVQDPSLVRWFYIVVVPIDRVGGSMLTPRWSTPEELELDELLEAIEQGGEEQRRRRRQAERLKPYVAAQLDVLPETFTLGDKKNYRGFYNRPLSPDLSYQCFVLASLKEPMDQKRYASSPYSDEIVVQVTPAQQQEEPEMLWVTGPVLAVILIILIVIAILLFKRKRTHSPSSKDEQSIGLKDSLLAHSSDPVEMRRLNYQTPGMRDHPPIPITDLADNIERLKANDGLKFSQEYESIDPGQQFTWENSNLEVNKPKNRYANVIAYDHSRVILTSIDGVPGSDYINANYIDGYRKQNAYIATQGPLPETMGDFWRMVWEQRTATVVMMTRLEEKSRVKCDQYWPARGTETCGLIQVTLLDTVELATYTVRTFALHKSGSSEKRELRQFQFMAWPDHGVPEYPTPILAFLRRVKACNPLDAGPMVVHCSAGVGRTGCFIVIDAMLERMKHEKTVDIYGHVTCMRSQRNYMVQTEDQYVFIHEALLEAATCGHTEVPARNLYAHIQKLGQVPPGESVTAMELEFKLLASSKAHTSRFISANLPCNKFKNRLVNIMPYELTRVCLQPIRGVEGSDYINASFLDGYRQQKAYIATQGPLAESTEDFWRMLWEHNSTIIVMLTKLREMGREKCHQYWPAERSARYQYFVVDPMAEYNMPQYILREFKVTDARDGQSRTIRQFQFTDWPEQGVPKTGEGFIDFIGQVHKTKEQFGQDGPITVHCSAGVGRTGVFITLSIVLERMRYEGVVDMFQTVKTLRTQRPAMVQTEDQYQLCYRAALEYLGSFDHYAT

Row | SMILES | Ki
48 | O=C(Nc1cc(C(F)(F)F)c(Br)c(C(F)(F)F)c1)c1ccc(C(F)(F)P(=O)(O)O)cc1 | > 100 µM

target: T5, Low molecular weight phosphotyrosine protein phosphatase (Homo sapiens, UniProt P24666); experiment: Inhibition of human HCPTPA; conditions: not given
T5 sequence (P24666 whole entry): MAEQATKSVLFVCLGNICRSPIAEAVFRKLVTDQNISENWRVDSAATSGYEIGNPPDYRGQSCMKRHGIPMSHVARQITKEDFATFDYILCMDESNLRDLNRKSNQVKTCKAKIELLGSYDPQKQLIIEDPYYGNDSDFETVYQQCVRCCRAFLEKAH

Row | SMILES | Ki
49 | O=C(Nc1cc(C(F)(F)F)c(Br)c(C(F)(F)F)c1)c1ccc(C(F)(F)P(=O)(O)O)cc1 | 14.8 µM
